Measurements: ChEMBL document CHEMBL1828555, “Primary amino acid derivatives: substitution of the 4'-N'-benzylamide site in (R)-N'-benzyl 2-amino-3-methylbutanamide, (R)-N'-benzyl 2-amino-3,3-dimethylbutanamide, and (R)-N'-benzyl 2-amino-3-methoxypropionamide provides potent anticonvulsants with pain-attenuating properties” (J Med Chem, 2011)
The source made the active and inactive calls. The calls are words filed in the database; no cut-off is given here.

Experiments:
Mus musculus [1] = assay: Anticonvulsant activity in ip dosed albino CF1 mouse assessed as protection against maximal electroshock-induced seizure after 30 mins; type: functional; details: 0.5 h
Rattus norvegicus [2] = assay: Anticonvulsant activity in po dosed albino Sprague-Dawley rat assessed as time of peak effect for protection against maximal electroshock seizure; type: functional
Mus musculus [3] = assay: Anticonvulsant activity in ip dosed albino CF1 mouse assessed as time of peak effect for protection against maximal electroshock-induced seizure; type: functional
Mus musculus [4] = assay: Neurotoxicity in ip dosed albino CF1 mouse assessed as time of peak effect for median neurological impairing; type: toxicity, organism-based; details: in vivo
Rattus norvegicus [5] = assay: Toxicity in po dosed albino Sprague-Dawley rat assessed as time of peak effect for behavioural toxicity; type: organism-based; details: in vivo
Mus musculus [6] = assay: Analgesic activity in ip dosed NMRI mouse assessed as reduction in formalin-induced neuropathic pain after 30 mins; type: functional; details: 0.5 h
Mus musculus [7] = assay: Anticonvulsant activity in ip dosed NMRI mouse assessed as protection against maximal electroshock seizure after 30 mins; type: functional; details: 0.5 h
Mus musculus [8] = assay: Anticonvulsant activity in ip dosed 6 Hz psychomotor seizure model of NMRI mouse assessed as protection against seizure after 30 minutes; type: functional; details: 0.5 h
Mus musculus [9] = assay: Anticonvulsant activity in ip dosed albino CF1 mouse assessed as protection against subcutaneous pentylenetetrazol-induced seizure; type: functional, organism-based
[10] = Neurotoxicity in ip dosed albino CF1 mouse assessed as median neurological impairing dose after 30 mins; type: toxicity, organism-based; details: in vivo
Rattus norvegicus [11] = assay: Protective index, ratio of TD50 for po dosed albino Sprague-Dawley rat to ED50 for po dosed albino Sprague-Dawley rat by maximal electroshock test; type: functional
Mus musculus [12] = assay: Anticonvulsant activity in ip dosed albino CF1 mouse assessed as time of peak effect for protection against 6 Hz psychomotor seizure; type: functional
Mus musculus [13] = assay: Protective index, ratio of TD50 for ip dosed NMRI mouse to ED50 for ip dosed NMRI mouse by maximal electroshock test; type: functional
Rattus norvegicus [14] = assay: Anticonvulsant activity in po dosed albino Sprague-Dawley rat assessed as protection against maximal electroshock seizure; type: functional
Mus musculus [15] = assay: Anticonvulsant activity in ip dosed albino CF1 mouse assessed as protection against 6 Hz psychomotor seizure after 30 mins; type: functional; details: 0.5 h
[16] = Toxicity in po dosed albino Sprague-Dawley rat assessed as behavioural toxicity; type: organism-based; details: in vivo
Mus musculus [17] = assay: Protective index, ratio of TD50 for ip dosed albino CF1 mouse to ED50 for ip dosed albino CF1 mouse by maximal electroshock test; type: functional
Mus musculus [18] = assay: Analgesic activity in ip dosed albino CF1 mouse assessed as time of peak effect for reduction of formalin-induced neuropathic pain; type: functional
Mus musculus [19] = assay: Analgesic activity in ip dosed albino CF1 mouse assessed as reduction of formalin-induced neuropathic pain after 30 mins; type: functional; details: 0.5 h
[20] = Neurotoxicity in ip dosed NMRI mouse assessed as median neurological impairing dose after 30 mins by rotarod test; type: toxicity, organism-based; details: in vivo

SMILES: CCCC(CCC)C(=O)[O-].[Na+] [VALPROATE SODIUM]
- ED50 (Mus musculus [1]): 270 mg/kg
- Time (Rattus norvegicus [2]): 0.5 h
- Time (Mus musculus [3]): 0.5 h
- Time (Mus musculus [4]): 0.25 h
- Time (Rattus norvegicus [5]): 0.5 h

SMILES: C[C@@H](N)C(=O)NCc1ccc(OCc2cccc(F)c2)cc1
- ED50 (Mus musculus [6]): > 37 mg/kg
- ED50 (Mus musculus [7]): 17 mg/kg
- ED50 (Mus musculus [8]): > 120 mg/kg
- Activity (Mus musculus [9]): inactive

SMILES: CC(C)(C)[C@@H](N)C(=O)NCc1ccccc1
- ED50 (Mus musculus [1]): 14 mg/kg
- TD50 at 0.5 h [10]: 66 mg/kg
- Ratio TD50/ED50 (Rattus norvegicus [11]): >45
- Time (Rattus norvegicus [2]): 0.25 h
- Time (Mus musculus [12]): 0.25 h
- Ratio TD50/ED50 (Mus musculus [13]): 4.7
- ED50 (Mus musculus [6]): > 22 mg/kg
- ED50 (Mus musculus [7]): 13 mg/kg
- ED50 (Rattus norvegicus [14]): 11 mg/kg
- Time (Mus musculus [3]): 0.25 h
- ED50 (Mus musculus [8]): > 71 mg/kg
- Time (Mus musculus [4]): 0.25 h
- ED50 (Mus musculus [15]): 30 mg/kg
- TD50 [16]: > 500 mg/kg
- Activity (Mus musculus [9]): inactive
- Ratio TD50/ED50 (Mus musculus [17]): 4.7

SMILES: CC(C)[C@@H](N)C(=O)NCc1ccc(Cl)cc1
- ED50 (Mus musculus [1]): 22 mg/kg
- TD50 at 0.5 h [10]: 74 mg/kg
- Time (Mus musculus [18]): 0.25 h
- Time (Mus musculus [12]): 0.25 h
- Time (Mus musculus [3]): 0.25 h
- Time (Mus musculus [4]): 0.25 h
- ED50 (Mus musculus [15]): 50 mg/kg
- ED50 (Mus musculus [19]): 22 mg/kg
- Activity (Mus musculus [9]): inactive
- Ratio TD50/ED50 (Mus musculus [17]): 3.4

SMILES: COC[C@@H](N)C(=O)NCc1ccc(OC(F)(F)F)cc1.Cl
- TD50 at 0.5 h [20]: 30 mg/kg
- ED50 (Mus musculus [7]): 10 mg/kg
- Activity (Mus musculus [9]): inactive

SMILES: CC(C)(C)[C@@H](N)C(=O)NCc1ccc(-c2ccccc2)cc1
- ED50 (Mus musculus [1]): 30 mg/kg
- TD50 at 0.5 h [10]: 30 mg/kg
- Time (Mus musculus [3]): 0.5 h
- Time (Mus musculus [4]): 0.5 h
- Activity (Mus musculus [9]): inactive

SMILES: CC(C)(C)[C@@H](N)C(=O)NCc1ccc(OC(F)(F)F)cc1
- ED50 (Mus musculus [1]): 28 mg/kg
- TD50 at 0.5 h [10]: 73 mg/kg
- Time (Rattus norvegicus [2]): 2 h
- ED50 (Rattus norvegicus [14]): 23 mg/kg
- Time (Mus musculus [3]): 1 h
- Time (Mus musculus [4]): 0.25 h
- TD50 [16]: > 30 mg/kg
- Time (Rattus norvegicus [5]): 0.25 h
- Activity (Mus musculus [9]): inactive
- Ratio TD50/ED50 (Mus musculus [17]): 2.6

SMILES: COC[C@H](N)C(=O)NCc1ccc(COc2cccc(F)c2)cc1
- ED50 (Mus musculus [1]): 30 mg/kg
- TD50 at 0.5 h [10]: 100 mg/kg
- Activity (Mus musculus [9]): inactive

SMILES: CC(C)[C@@H](N)C(=O)NCc1ccc(COc2cccc(F)c2)cc1
- ED50 (Mus musculus [1]): 18 mg/kg
- TD50 at 0.5 h [10]: 71 mg/kg
- Time (Rattus norvegicus [2]): 0.5 h
- Time (Mus musculus [12]): 0.5 h
- Ratio TD50/ED50 (Mus musculus [13]): 3.9
- ED50 (Mus musculus [6]): 30 mg/kg
- ED50 (Mus musculus [7]): 12 mg/kg
- ED50 (Rattus norvegicus [14]): < 30 mg/kg
- Time (Mus musculus [3]): 0.25 h
- ED50 (Mus musculus [8]): > 110 mg/kg
- Time (Mus musculus [4]): 0.5 h
- ED50 (Mus musculus [15]): 30 mg/kg
- TD50 [16]: > 30 mg/kg
- Time (Rattus norvegicus [5]): 0.25 h
- Activity (Mus musculus [9]): inactive

SMILES: COC[C@H](N)C(=O)NCc1ccccc1
- TD50 at 0.5 h [20]: 63 mg/kg
- Ratio TD50/ED50 (Mus musculus [13]): 1
- ED50 (Mus musculus [6]): 120 mg/kg
- ED50 (Mus musculus [7]): 64 mg/kg
- ED50 (Mus musculus [8]): > 70 mg/kg
- Activity (Mus musculus [9]): inactive

SMILES: CC(C)(C)[C@@H](N)C(=O)NCc1ccc(C(F)(F)F)cc1
- ED50 (Mus musculus [1]): 24 mg/kg
- TD50 at 0.5 h [10]: 133 mg/kg
- Time (Rattus norvegicus [2]): 0.5 h
- ED50 (Rattus norvegicus [14]): < 30 mg/kg
- Time (Mus musculus [3]): 0.25 h
- Time (Mus musculus [4]): 0.25 h
- TD50 [16]: > 30 mg/kg
- Time (Rattus norvegicus [5]): 0.25 h
- Activity (Mus musculus [9]): inactive
- Ratio TD50/ED50 (Mus musculus [17]): 5.5

SMILES: O=C1NC(=O)C(c2ccccc2)(c2ccccc2)N1 [PHENYTOIN]
- TD50 at 0.5 h [10]: 27 mg/kg
- Time (Rattus norvegicus [2]): 4 h
- Time (Mus musculus [3]): 2 h
- Time (Mus musculus [4]): 0.25 h
- TD50 [16]: > 3000 mg/kg

SMILES: CC(C)(C)[C@@H](N)C(=O)NCc1ccc(Cl)cc1
- ED50 (Mus musculus [1]): 25 mg/kg
- TD50 at 0.5 h [10]: 84 mg/kg
- Time (Mus musculus [18]): 0.25 h
- Time (Rattus norvegicus [2]): 0.25 h
- Time (Mus musculus [12]): 0.25 h
- ED50 (Rattus norvegicus [14]): 30 mg/kg
- Time (Mus musculus [3]): 0.25 h
- Time (Mus musculus [4]): 0.5 h
- ED50 (Mus musculus [15]): < 100 mg/kg
- TD50 [16]: > 30 mg/kg
- Time (Rattus norvegicus [5]): 0.25 h
- ED50 (Mus musculus [19]): 25 mg/kg
- Activity (Mus musculus [9]): inactive
- Ratio TD50/ED50 (Mus musculus [17]): 3.4

SMILES: Cc1ccc(CNC(=O)[C@H](N)C(C)C)cc1
- ED50 (Mus musculus [1]): > 300 mg/kg
- TD50 at 0.5 h [10]: > 300 mg/kg
- Time (Rattus norvegicus [2]): 1 h
- ED50 (Rattus norvegicus [14]): 50 mg/kg
- Time (Mus musculus [3]): 0.5 h
- Time (Mus musculus [4]): 0.5 h
- TD50 [16]: > 50 mg/kg
- Time (Rattus norvegicus [5]): 0.25 h
- Activity (Mus musculus [9]): inactive

SMILES: C[C@@H](N)C(=O)NCc1ccccc1
- ED50 (Mus musculus [1]): 10 mg/kg
- TD50 at 0.5 h [10]: 100 mg/kg
- ED50 (Mus musculus [19]): 69 mg/kg
